{"source": "patent US12208108B2", "about": "“Drug targets of delayed aging and human brain diseases” (Texas Tech University System, priority 2016, dated 2025)", "format_in_all_cases": "cell-based, Human", "key": {"SHSY5Y cells [1]": {"system": "SHSY5Y cells", "assay": "H2O2 production (Amplex Red)", "protocol": "Mitochondrial function assays. Hydrogen peroxide production. Using an Amplex® Red H2O2 Assay Kit (Molecular Probes, Eugene, Oreg.), the inventors measured the production of H2O2 in independent experiments (n=4) of SHSY5Y neurons treated 1) with and 2) without DDQ, DDQ treated and then incubated with Aβ, as described in Manczak et al.."}, "SHSY5Y cells [2]": {"system": "SHSY5Y cells", "assay": "Immunoblotting analysis of mitochondrial, synaptic proteins and Aβ", "description": "Immunoblotting analysis. To determine the effects of Aβ on mitochondrial proteins and the useful effects of DDQ at the protein level, the inventors quantified mitochondrial proteins in five independent treatments of cells with Aβ, DDQ, Aβ+DDQ and DDQ+Aβ.\nDDQ reduces Aβ and Drp1 levels. To determine whether DDQ reduces Aβ and Drp1 levels, the inventors conducted immunoblotting analysis, in cells treated with DDQ, Aβ+DDQ and DDQ+Aβ.\nFIG. 3 illustrates the experimental strategy of the cell culture work and including treatments. The cells were grown in a medium (1:1 DMEM and F12, 10% FBS, lx penicillin, and streptomycin) at 37° C. in a humified incubator with a 5% CO2 environment. After seeding were allowed to grow for 24-48 hrs or until 80% confluence in six-well plates and used for experiments. The inventors used five different groups of cells—(1) untreated SHSY5Y cells; (2) SHSY5Y cells treated with DDQ (250 nM final concentration) for 24 hrs; (3) SHSY5Y cells incubated with Aβ peptide 1-42 (20 uM final concentration) for 6 hrs; (4) SHSY5Y cells treated Aβ for 6 hrs+DDQ for 24 hrs and (5) SHSY5Y cells treated DDQ for 24 hrs and Aβ for 6 hrs. Half a million SHSY5Y cells were suspended per well into six-well plates. The inventors used Aβ peptide 1-42 and DDQ 250 nM in the experiments. After treatments, the inventors harvested cells, conducted experiments to measure the levels mRNA using Sybr-Green based real-time RT-PCR, proteins using immunoblotting and immunofluorescence analysis and cell viability using MTT assay. The inventors counted the number of mitochondria by electron microscopy."}, "SHSY5Y cells [3]": {"system": "SHSY5Y cells", "assay": "Cytochrome oxidase activity", "protocol": "Cytochrome oxidase activity. Cytochrome oxidase activity was measured in the mitochondria isolated from SHSY5Y cells of control and experimental treatments (n=4), as described in Manczak et al.^33. Enzyme activity was assayed spectrophotometrically using a Sigma Kit (Sigma-Aldrich) following manufacturer's instructions."}, "[4]": {"conditions": "Aβ + DDQ (Aβ1-42 20 μM 6 hrs, then DDQ 24 hrs) vs untreated cells"}, "[5]": {"conditions": "DDQ 250 nM 24 hrs vs untreated cells"}, "[6]": {"conditions": "DDQ + Aβ (DDQ 24 hrs, then Aβ1-42 6 hrs) vs untreated cells"}, "[7]": {"conditions": "Aβ + DDQ (Aβ1-42 6 hrs, then DDQ 24 hrs) vs Aβ treated cells"}, "[8]": {"conditions": "DDQ + Aβ (DDQ 24 hrs, then Aβ1-42 6 hrs) vs Aβ treated cells"}}}
{"smiles": "CCOP(=O)(OCC)C(NCCc1ccc(O)c(O)c1)c1ccnc2ccccc12", "note": "(stereo not drawn) [DDQ, diethyl(3,4-dihydroxyphenethylamine)(quinolin-4-yl)methylphosphonate]", "values": [{"measurement": "H2O2 levels", "setting": "SHSY5Y cells [1]; [4]", "result": "Significantly increased levels"}, {"measurement": "H2O2 levels", "setting": "SHSY5Y cells [1]; Aβ + DDQ (Aβ1-42 6 hrs, then DDQ 24 hrs) vs cells incubated with Aβ", "result": "significantly reduced"}, {"measurement": "H2O2 levels", "setting": "SHSY5Y cells [1]; [5]", "result": "significantly decreased levels"}, {"measurement": "H2O2 levels", "setting": "SHSY5Y cells [1]; DDQ + Aβ (DDQ 24 hrs, then Aβ1-42 6 hrs) vs cells incubated with Aβ", "result": "significantly reduced"}, {"measurement": "H2O2 levels", "setting": "SHSY5Y cells [1]; [6]", "result": "Significantly increased levels"}, {"measurement": "Drp1 protein level", "setting": "SHSY5Y cells [2]; [4]", "result": "reduced"}, {"measurement": "Fis1 protein level", "setting": "SHSY5Y cells [2]; [4]", "result": "reduced"}, {"measurement": "Mfn1 protein level", "setting": "SHSY5Y cells [2]; [4]", "result": "significantly increased"}, {"measurement": "PSD95 protein level", "setting": "SHSY5Y cells [2]; [4]", "result": "significantly increased"}, {"measurement": "synaptophysin protein level", "setting": "SHSY5Y cells [2]; [4]", "result": "significantly increased"}, {"measurement": "Drp1 protein level", "setting": "SHSY5Y cells [2]; [7]", "result": "significantly reduced levels"}, {"measurement": "Mfn1 protein level", "setting": "SHSY5Y cells [2]; [7]", "result": "increased"}, {"measurement": "Mfn2 protein level", "setting": "SHSY5Y cells [2]; [7]", "result": "increased"}, {"measurement": "Nrf1 protein level", "setting": "SHSY5Y cells [2]; [7]", "result": "increased"}, {"measurement": "Nrf2 protein level", "setting": "SHSY5Y cells [2]; [7]", "result": "increased"}, {"measurement": "PSD95 protein level", "setting": "SHSY5Y cells [2]; [7]", "result": "increased"}, {"measurement": "TFAM protein level", "setting": "SHSY5Y cells [2]; [7]", "result": "increased"}, {"measurement": "synaptophysin protein level", "setting": "SHSY5Y cells [2]; [7]", "result": "increased"}, {"measurement": "4 kDa Aβ levels", "setting": "SHSY5Y cells [2]; Aβ + DDQ (Aβ1-42 6 hrs, then DDQ 24 hrs) vs cells treated with Aβ alone", "result": "reduced levels"}, {"measurement": "Drp1 protein level", "setting": "SHSY5Y cells [2]; [5]", "result": "significantly reduced"}, {"measurement": "Fis1 protein level", "setting": "SHSY5Y cells [2]; [5]", "result": "significantly reduced"}, {"measurement": "Mfn2 protein level", "setting": "SHSY5Y cells [2]; [5]", "result": "significantly increased"}, {"measurement": "Mitochondrial biogenesis protein levels", "setting": "SHSY5Y cells [2]; [5]", "result": "significantly increased"}, {"measurement": "Drp1 protein level", "setting": "SHSY5Y cells [2]; [8]", "result": "significantly reduced levels"}, {"measurement": "Fis1 protein level", "setting": "SHSY5Y cells [2]; [8]", "result": "significantly reduced levels"}, {"measurement": "Mfn1 protein level", "setting": "SHSY5Y cells [2]; [8]", "result": "increased"}, {"measurement": "Mfn2 protein level", "setting": "SHSY5Y cells [2]; [8]", "result": "increased"}, {"measurement": "Nrf1 protein level", "setting": "SHSY5Y cells [2]; [8]", "result": "significantly increased levels"}, {"measurement": "Nrf2 protein level", "setting": "SHSY5Y cells [2]; [8]", "result": "significantly increased levels"}, {"measurement": "PSD95 protein level", "setting": "SHSY5Y cells [2]; [8]", "result": "increased"}, {"measurement": "TFAM protein level", "setting": "SHSY5Y cells [2]; [8]", "result": "significantly increased levels"}, {"measurement": "synaptophysin protein level", "setting": "SHSY5Y cells [2]; [8]", "result": "increased"}, {"measurement": "4 kDa Aβ levels", "setting": "SHSY5Y cells [2]; DDQ + Aβ (DDQ 24 hrs, then Aβ1-42 6 hrs) vs cells treated with Aβ alone", "result": "reduced levels"}, {"measurement": "Drp1 protein level", "setting": "SHSY5Y cells [2]; [6]", "result": "Decreased levels"}, {"measurement": "cytochrome oxidase activity", "setting": "SHSY5Y cells [3]; [4]", "result": "unchanged"}, {"measurement": "cytochrome oxidase activity", "setting": "SHSY5Y cells [3]; Aβ + DDQ (Aβ1-42 6 hrs, then DDQ 24 hrs) vs Aβ incubated cells", "result": "increased"}, {"measurement": "cytochrome oxidase activity", "setting": "SHSY5Y cells [3]; [5]", "result": "significantly increased levels"}, {"measurement": "cytochrome oxidase activity", "setting": "SHSY5Y cells [3]; DDQ + Aβ (DDQ 24 hrs, then Aβ1-42 6 hrs) vs Aβ incubated cells", "result": "increased"}, {"measurement": "cytochrome oxidase activity", "setting": "SHSY5Y cells [3]; [6]", "result": "unchanged"}]}
